This note sets out measurements from US5877166A, “Enantiomerically pure 2-aminopurine phosphonate nucleotide analogs as antiviral agents” (priority 1997, dated 1999).

Broadly, the CC50 is the concentration that lowers cell viability or growth by half. Read a low CC50 as greater toxicity to the cells.

Data set [1] relates to uninfected BALB/c mice. Description: Toxicity to uninfected BALB/c mice. Type of data set: in vivo. The conditions noted are these: for Kidney Damage (%) / Survivors/Total: once daily for 15 days; for Weight Change: between day 0 and day 16. From the text: (§1) Toxicity of 1-5 to uninfected BALB/c mice.
(§2) ^a Treatments were given once daily for 15 days.
(§3) ^b Difference in weight (in grams) between day 0 and day 16.

The nature of data set [2]: Toxicity to uninfected BALB/c mice. The conditions noted are these: mouse, in vivo, once daily for 15 days, read-out: Survivors (%). Type of data set: in vivo.
Description: as §1, §2, §3

The test system of data set [3] is murine cytomegalovirus. Description: Activity against a murine cytomegalovirus infection in normal BALB/c mice. Format: in vivo. The method, then:
Activities of 1-5 and 1-6
Against a murine cytomegalovirus infection
^a Treatments were given once daily for 5 days starting 24 hours afte

Data set [4] relates to HCMV, Strain D-16. The data set can be described thus: Antiviral activity (plaque reduction) vs. HCMV, Strain D-16 in MRC-5 cells. Type of data set: cell-based, human cytomegalovirus (HCMV). The conditions noted are these: for TI (therapeutic index, ratio of the median cytotoxic dose to the median effective dose): CD50/ED50, 4320 min; for inhibition at 1 µg/mL / inhibition at 3.2 µg/mL / inhibition at 10 µg/mL / inhibition at 32 µg/mL / inhibition at 100 µg/mL / inhibition at 316 µg/mL: Human betaherpesvirus 5, MRC5, 72 h, read-out: % Reduction (plaques); for EC50: Human betaherpesvirus 5, MRC5, 72 hours, MRC-5 cells, read-out: ED50 (median effective antiviral dose).

Data set [5] in a line: in vitro. Format: cell-based. The conditions noted are these: human, mrc-5 cells. The method, then: The herpes strain employed was Strain D-16 of HCMV. Continuous passaged MRC-5 cells obtained from the American Type Culture Collection (Bethesda, Md.) were used for testing, with growth medium consisting of Minimum Essential Medium (MEM) supplemented with 0.1% NaHCO3 and […] gentamicin.
To a 96-well microtiter plate containing an established 24-hour monolayer of cells from which the medium had been decanted was added 0.1 mL of varying (one-half log10) concentration of test compound, which incubated on the cell 15 minutes, after which 0.1 mL of virus in a concentration of 320 cell culture 50% infectious doses (CCID50)/0.1 mL was added. The plate was covered with plastic wrap and incubated at 37° C. The cells were examined microscopically after 72 hours. The ED50 (the median effective antiviral dose, i.e., that dose which is effective in 50% of the cells), CD50 (the median cytotoxic dose, i.e., that dose which produces cytotoxicity in 50% of the cells), and TI (the therapeutic index, meaning the ratio of the median cytotoxic dose to the median effective dose) were evaluated.

[6] abbreviates: 5 mg/kg/day, once daily for 5 days.
The mark [7] stands for this setting: 10 mg/kg/day, once daily for 5 days.
The mark [8] stands for this setting: 20 mg/kg/day, once daily for 5 days.
Where [9] appears, read: 40 mg/kg/day, once daily for 5 days.
Setting [10] is: 40 mg/kg/day, once daily for 5 days starting 24 hours after virus challenge.

Structures are written as SMILES. Values after ≈ are worked out from the molar mass of the structure shown. Read-outs that look alike come from different tables or passages of the source. Bounds are passed on as bounds.

As to `Nc1ncc2ncn(CO[C@@H](CO)CCP(=O)(O)O)c2n1` [Compound 1-5, 2-Amino-9-[(R(-)-1-hydroxymethyl-3-phosphono)-1-propyloxymethyl]-9H-purine], the “Kidney Damage (%)” value in data set [1] (100 mg/kg/day), in data set [1] (200 mg/kg/day), in data set [1] (400 mg/kg/day) and in data set [1] (600 mg/kg/day) was 0% throughout. Also, the Survivors/Total in data set [1] (100 mg/kg/day) is listed as 3/3; in data set [1] (200 mg/kg/day), 3/3; in data set [1] (400 mg/kg/day), 3/3; in data set [1] (600 mg/kg/day), 3/3; in data set [3] (setting [6]), 5/10; in data set [3] (setting [7]), 7/10. The Survivors/Total in data set [3] (setting [8]) is given as 8/10; in data set [3] (setting [10]), 10/10. The “Weight Change” value is recorded as “+7.0 grams” in data set [1] (100 mg/kg/day), “+7.8 grams” in data set [1] (200 mg/kg/day), “+6.6 grams” in data set [1] (400 mg/kg/day) and “+4.5 grams” in data set [1] (600 mg/kg/day). The survival in data set [2] (100 mg/kg/day), in data set [2] (200 mg/kg/day), in data set [2] (400 mg/kg/day) and in data set [2] (600 mg/kg/day) was 100% each time. Also, the “Mean Day to Death” value in data set [3] (setting [6]) was 9.6 ± 4.6 days; in data set [3] (setting [7]), 10.0 ± 3.6 days; in data set [3] (setting [8]), 11.5 ± 0.7 days; in data set [3] (setting [9]) it was over 21 days. The “Survivors (%)” value worked out at 50% in data set [3] (setting [6]), 70% in data set [3] (setting [7]), 80% in data set [3] (setting [8]) and 100% in data set [3] (setting [9]).
For the compound `Nc1ncc2ncn(CO[C@@H]3CCP(=O)(O)OC3)c2n1` [Compound 1-6], in data set [4] (1 μg/mL), the “Number of Plaques” value stood at 51.0 and the inhibition at 1 µg/mL was found to be 37%. In addition, in data set [4] (3.2 μg/mL), the “Number of Plaques” value stood at 56.0 and the inhibition at 3.2 µg/mL is 31%. Moreover, in data set [4] (10 μg/mL), the “Number of Plaques” value came out at 33.0 and the inhibition at 10 µg/mL is 59%. In data set [4] (32 μg/mL), the “Number of Plaques” value worked out at 6.5 and the inhibition at 32 µg/mL came out at 92%. Moreover, in data set [4] (100 μg/mL), the “Number of Plaques” value amounted to 0.0 and the inhibition at 100 µg/mL is 100%. Further, in data set [4] (316 μg/mL), the “Number of Plaques” value came to 0.0 and the inhibition at 316 µg/mL was 100%. Besides, in data set [4] (1000 μg/mL), the “% Reduction (given as toxic)” value is listed as “toxic” and the “Number of Plaques (given as toxic)” value is recorded as “toxic”. In addition, in data set [4], the “TI (therapeutic index, ratio of the median cytotoxic dose to the median effective dose)” value was determined as 73 and the EC50 came to 6.7 µg/mL (≈ 22.4 µM). For the same compound, in data set [3] (setting [6]), the “Mean Day to Death” value is 6.4 ± 0.5 days, the “Survivors (%)” value was 0% and the Survivors/Total was 0/10. Moreover, in data set [3] (setting [7]), the “Mean Day to Death” value turned out to be 7.4 ± 2.0 days, the “Survivors (%)” value was 0% and the Survivors/Total is reported as 0/10. Besides, in data set [3] (setting [8]), the “Mean Day to Death” value came to 6.1 ± 0.4 days, the “Survivors (%)” value was found to be 30% and the Survivors/Total was 3/10. Further, in data set [3] (setting [9]), the “Mean Day to Death” value was determined as 8.3 ± 4.9 days and the “Survivors (%)” value is listed as 40%. Besides, the Survivors/Total in data set [3] (setting [10]) is recorded as 4/10. Moreover, in data set [5], the half-maximal cytotoxic concentration (CC50) at 72 h was found to be 487 µg/mL (≈ 1630 µM).
In the case of `Nc1nc2c(ncn2COC(CO)CO)c(=O)[nH]1` [DHPG, 9-[(1,3dihydroxy-2-propoxy)methyl] guanine, reference compound], in data set [4] (1 μg/mL), the “Number of Plaques” value was 69.0 and the inhibition at 1 µg/mL worked out at 0%. In data set [4] (3.2 μg/mL), the “Number of Plaques” value came out at 57.0 and the inhibition at 3.2 µg/mL was 0%. Besides, in data set [4] (10 μg/mL), the “Number of Plaques” value amounted to 24.5 and the inhibition at 10 µg/mL was 70%. Also, in data set [4] (32 μg/mL), the “Number of Plaques” value was 2.0 and the inhibition at 32 µg/mL was 98%. In addition, in data set [4] (100 μg/mL), the “Number of Plaques” value is listed as 0.0 and the inhibition at 100 µg/mL amounted to 100%. In data set [4] (316 μg/mL), the “Number of Plaques” value is on record as 0.0 and the inhibition at 316 µg/mL was 100%. In addition, in data set [4], the “TI (therapeutic index, ratio of the median cytotoxic dose to the median effective dose)” value was over 44 and the EC50 was 7.2 µg/mL (≈ 28.2 µM). Further, in data set [5], the 50% cytotoxic concentration (CC50) at 72 h was over 316 µg/mL.
